The numbers were not newly measured in US11246867B2, “Pharmaceutical composition comprising pimobendan” (Ceva Sante Animale, priority 2015, dated 2022), which cites them from elsewhere.

The conditions of this series: pH 5.

Consider `COc1ccc(-c2nc3ccc(C4=NNC(=O)CC4C)cc3[nH]2)cc1` (stereo not shown) [pimobendan, 4,5-dihydro-6-[2-(4-methoxyphenyl)-1H-benzimidazol-5-yl]-5-methyl-3(2H)-pyridazone], for which the solubility in water result was “about 1 mg/liter”.
